Experimental findings from PMC4235525, “Anticancer Properties of Novel Rhenium Pentylcarbanato Compounds against MDA-MB-468(HTB-132) Triple Node Negative Human Breast Cancer Cell Lines” (British journal of pharmaceutical research, 2015) are described below.

Assay [1] concerns Balb/c mouse kidney (mouse glomerular mesangial) cell line. The assay can be described thus: Trypan blue cytotoxicity (nephrotoxicity) in mouse kidney cells. In kind it is cell-based. The following applies: 48 hours, trypan blue assay, drugs in DMSO; read-out: IC-50 (mean ± S.D.), concentration required to have 50% cell-growth inhibition, Mouse Mesangial cell lines. As to the method: Aim To study the efficacy of novel rhenium compounds to treat triple node negative breast cancer. Place and Duration Six (6) novel rhenium pentycarbanato compounds (PC1-6) were synthesized and triple node negative breast cancer cell lines HTB-132 and Balb/c mouse kidney cell lines were treated with each of them for 48 hours. The results were analyzed by a common trypan blue cell death assay system and statistically analyzed. Place and Duration The compounds were synthesized, analyzed and evaluated at the Department of Chemistryof Morgan State University, Baltimore, Maryland and the Pharmaceutical Sciences Department of Elizabeth City State University campus of the University of North Carolina system. Methodology The novel rhenium compounds were synthesized from one-pot reactions of Re2(CO)10 with the corresponding α-diimine ligands in 1-pentanol.The compounds were characterized spectroscopically. The cell lines were cultured by standard cell culture procedure and treated with each of the six compounds in DMSO for 48 hours with a negative control and a DMSO vehicular control along with a cisplatin positive control.The cytotoxicity was evaluated by standard trypan blue assay and the results were statistically analyzed. […] Conclusion The novel rhenium compounds PC 1-6 can potentially find applications in the treatment of highly malignant triple node negative breast cancer. […]

Assay [2] concerns MDA-MB-468 (HTB-132) triple node negative breast cancer cell lines. Briefly: Trypan blue cytotoxicity assay, 48 h treatment. The assay is classed as cell-based, human. The conditions noted are these: drugs in DMSO, read-out: IC-50 (mean ± S.D.), concentration required to have 50% cell-growth inhibition, Breast Cancer HTB-132 cell lines. The method, then:
MDA-MB-468 (HTB-132) triple node negative breast cancer cell lineswere obtained from ATCC (USA), cultured inL-15 medium supplemented with 10% Fetal Bovine Serum(FBS), penicillin and streptomycin antibiotics and grownat 37°C inan incubator. The mouse glomerular mesangialcell line was a kind gift from Dr. C. Reilly of Virginia Tech University, USA. These cells were cultured in RPMI-1640 medium supplemented with 10%FBS, penicillin and streptomycin antibiotics and grown at 37°C in a carbon dioxide incubator.
HTB-132 breast cancer cell lines were grown in six well plates to confluency, the cells were then kept in serum-free medium overnight and then treated with each of drugsPC1-6 (dissolved in DMSO) along with untreated cells and DMSO vehicular control for 48 hours. […] Atrypan blue assay was done to measure cell viability using a standard hemocytometer and light microscope.
Each experiment was repeated three times and statistical t test was used to analyze the results with P<0.05.

In the case of cis-[Pt (NH3)2Cl2] [Cisplatin], the IC50 is 1000 ± 2500 nM in assay [1] and 5000 ± 2500 nM in assay [2].
